{"source": "paper PMC5581131", "about": "“The novel sphingosine-1-phosphate receptors antagonist AD2900 affects lymphocyte activation and inhibits T-cell entry into the lymph nodes” (Oncotarget, 2017)", "key": {"[1]": {"tested_on": "C57BL/6J female mice", "assay": "Leukocyte counts in thymus, blood, spleen and lymph nodes after oral administration in drinking water", "assay_type": "in vivo, mouse", "settings": "1.8 mg/l in drinking water", "protocol": "Next, 7- to 8-week-old C57BL/6J female mice were orally administered with AD2900 mixed in drinking water in different dosages (1.8, 2.7, or 3.6 mg/l) for 2 days (Figure 4A) or 7 days (Figure 4B); FTY720 was used as a positive control. In the 7-day experiment, the water was replaced on Day 3 with fresh water containing the same concentration of analog. At the end of the experiment, blood, spleen, inguinal lymph nodes, and thymus were obtained from each animal and the number of leukocytes was evaluated.\nFigure 4 AD2900 treatment alters the distribution of leukocytes in the thymus, blood, spleen, and peripheral lymph nodes in mice C57BL/6 female mice were orally administered with 1.8 mg/l AD2900 in their drinking water for 2 days (A) or 7 days (B), and FTY720 (1.8 mg/l) was used as a positive control. Leukocytes from the thymus, blood, spleen, and peripheral lymph nodes (pLNs) were collected and counted. All the significances are compared to untreated healthy mice. Results summarize four independent experiments in figure (A) and two independent experiments in figure (B). n = 4–7 mice per group in each experiment. Results of Student’s t-test:*(P < 0.05, two-tailed test), ** (P < 0.01, two-tailed test), *** (P < 0.001, two-tailed test), **** (P < 0.0001, two-tailed test).\n(§1) C57BL/6 female mice aged 7–8 weeks were obtained from Harlan Laboratories (Jerusalem, Israel). The animal study was conducted under appropriate conditions and was approved by the Institutional Animal Care and Use Committee of the Hebrew University of Jerusalem in accordance with the national laws and regulations for the protection of animals. AD2900 was dissolved in 10% BSA (MP Biomedicals, CA, USA) in DDW at 1 mg/ml and then further diluted in 200 ml water to get final concentrations at 1.8, 2.7, or 3.6 mg/l. AD2900 and FTY720 were supplied ad libitum to the mice for 2 days or 7 days. At the end of the experiment, blood was collected, and the mice were sacrificed and tissues (lymph nodes and spleen) were harvested.\nMurine blood samples, collected in tubes coated with EDTA (Grelner bio-one, Germany), were counted by a Mindray veterinary hematology Analyzer (Mindray, China). Single cell suspensions of lymph nodes and spleen were made in 1.5 ml of PBS. Cell counts were determined from these suspensions, yielding results in thousands of cells per microliter (μl)."}, "[2]": {"tested_on": "C57BL/6 mice", "assay": "S1P1-positive T-cell population in vivo, FACS", "set-up": "species or system mouse", "settings": "for increase of S1P1-positive T cells in the blood, of normal expression levels / increase of S1P1 population, spleen T cells / decrease of S1P1 population in the lymph nodes: 2-day treatment", "from_the_text": "(§2) The S1P gradient is a crucial factor for lymphocytes to egress from lymphoid tissues and re-enter the circulation. […] To identify whether the effect of AD2900 on T-cell localization may be mediated by an influence on S1P1 and CCR7 expression, we tested the percentage of S1P1- and CCR7-positive T-cell populations in the blood, spleen, and lymph node in each mouse after a 2-day treatment with AD2900. The percentage of cells expressing S1P1 or CCR7 on their cell surface was detected by FACS analysis and was calculated as % of expressing population in non-treated animals. […] AD2900 elevates the S1P1-expressing population in the blood and spleen, whereas it reduces this population in the lymph nodes. […] In the lymph nodes, the […] population was not affected by AD2900 treatment (Figure 7F).\n(§3) Figure 7 The influence of AD2900 on S1P1- and CCR7-positive T-cell populations in blood, spleen, and peripheral lymph nodes C57BL/6 mice were orally administered with 1.8, 2.7, and 3.6 mg/l AD2900 or 1.8 mg/l FTY720 for 2 days, as shown in Figure 4. Leukocytes from blood, spleen, and pLNs were collected and stained with CD3e and S1P1 or CCR7 fluorescent antibodies and then analyzed by FACS analysis. The percentages of S1P1+ CD3e+ T cells from blood (A), spleen (B), and pLNs (C) are shown. The percentages of CCR7+ CD3e+ T cells from blood (D), spleen (E), and pLNs (F) are shown. All the significances are compared to untreated healthy mice. Results summarize at least three independent experiments. Results of Student’s t-test:*(P < 0.05, two-tailed test), ** (P < 0.01, two-tailed test), *** (P < 0.001, two-tailed test), **** (P < 0.0001, two-tailed test).\nas §1"}, "[3]": {"tested_on": "C57BL/6 mice", "assay": "CCR7-positive T-cell population in vivo, FACS", "set-up": "species or system mouse", "from_the_text": "as §2, §3\nMurine lymphocytes: The phenotype of murine lymphocytes was analyzed by flow cytometry using anti-CD3e-FITC, anti-CD19-PB, anti-CCR7-APC, anti-CD44-FITC, anti-CD62L-APC, and anti-TCR-β-PB (Biolegend, CA, USA).\nas §1"}}}
{"smiles": "CCCCCCCCCCCCCCCCNC(CO)(CO)CO", "note": "[AD2900]", "values": [{"measurement": "increase of splenocyte counts", "setting": "[1]; 2-day treatment", "result": "33% ± 9%"}, {"measurement": "increase of thymus WBC count", "setting": "[1]; 2-day treatment", "result": "25% ± 8.2%"}, {"measurement": "increase of mice WBC count", "setting": "[1]; 7-day treatment", "result": "23% ± 7%"}, {"measurement": "increase of splenocyte counts", "setting": "[1]; 7-day treatment", "result": "20% ± 7%"}, {"measurement": "reduction of the number of leukocytes in the lymph nodes, of that of the control", "setting": "[1]; 7-day treatment", "result": "18% ± 4%"}, {"measurement": "increase of S1P1-positive T cells in the blood, of normal expression levels", "setting": "[2]; 1.8 mg/l", "result": "20% ± 4%"}, {"measurement": "increase of S1P1 population, spleen T cells", "setting": "[2]; 1.8 mg/l", "result": "12% ± 5%"}, {"measurement": "decrease of S1P1 population in the lymph nodes", "setting": "[2]; 2.7 mg/l", "result": "12% ± 3%"}, {"measurement": "increase of S1P1-positive T cells in the blood, of normal expression levels", "setting": "[2]; 2.7 mg/l", "result": "16% ± 5%"}, {"measurement": "increase of S1P1 population, spleen T cells", "setting": "[2]; 2.7 mg/l", "result": "31% ± 5%"}, {"measurement": "decrease of S1P1 population in the lymph nodes", "setting": "[2]; 3.6 mg/l", "result": "18% ± 11%"}, {"measurement": "increase of S1P1-positive T cells in the blood, of normal expression levels", "setting": "[2]; 3.6 mg/l", "result": "18% ± 4%"}, {"measurement": "decrease of CCR7-positive T cells in the blood, of the normal expression levels", "setting": "[3]; 1.8 mg/l, 2-day treatment", "result": "21% ± 5%"}, {"measurement": "decrease of CCR7-positive T cells in the blood, of the normal expression levels", "setting": "[3]; 2.7 mg/l, 2-day treatment", "result": "15% ± 4%"}, {"measurement": "decrease of the S1P1 population, spleen T cells (Figure 7E)", "setting": "[3]; 3.6 mg/l (highest dose), 2-day treatment", "result": "12% ± 4%"}, {"measurement": "S1P1 population in the lymph nodes (Figure 7F)", "setting": "[3]; 2-day treatment", "result": "not affected"}]}
{"smiles": "CCCCCCCCc1ccc(CCC(N)(CO)CO)cc1", "note": "[FTY720, Fingolimod, reference compound]", "values": [{"measurement": "lymph node leukocyte count", "setting": "[1]; 2-day and 7-day treatments", "result": "only minor effects"}, {"measurement": "WBC and splenocyte counts", "setting": "[1]; both 2-day and 7-day treatments", "result": "dramatically reduced"}, {"measurement": "effects on the S1P1 population in murine blood, spleen, and lymph nodes", "setting": "[2]; 1.8 mg/l, 2 days", "result": "did not demonstrate any effects"}, {"measurement": "reduction of the CCR7 population in murine blood, spleen, and lymph nodes", "setting": "[3]; 1.8 mg/l, 2 days", "result": "15%–20%"}]}
